Results published in publication PMC5473904, “Epigenetic and antitumor effects of platinum(IV)-octanoato conjugates” (Scientific Reports, 2017).

How the values were obtained:
[1] = tested on: DNA methylation in HCT-116 cells; test: DNA methylation analysis (Imprint methylated DNA quantification kit); type: cell-based, human; settings: HCT-116, free OA at sufficiently high (milimolar) concentration
Description: Human colon adenocarcinoma cells HCT-116 were chosen as the model cellular system suitable for DNA methylation analysis because: (i) this human colorectal cancer cell line has been used as a prototypic model for analyses of the genetic basis of cancer, and the role of epigenetic changes in tumorigenesis; (ii) they have a propensity to both global DNA hypomethylation and to silence genes through promoter focal hypermethylation, [21]. HCT-116 cells were treated with the compounds at the concentrations indicated in Fig. 4A for 24 or 72 h and DNA was isolated for the complete methylation analysis as described in the experimental section. Decitabine (5-aza-2′-deoxycytidine), a hypomethylating agent which hypomethylates DNA by inhibiting DNMT, was used in these experiments as a […]. The IC50 values found for this agent in HCT-116 cells (the drug-treatment period was 72 h) was (7.5 ± 0.3) µM (Table 1).
Figure 4 Analysis of DNA methylation. (A) DNA was isolated from HCT-116 cells after the exposure to the agents at the concentrations indicated in the graph for 24 or 72 h. The levels of DNA methylation in the control was taken as 100%. The bars represent mean values from three independent experiments each performed in octuplicate. The error bars are the SDs. (B) DNMT activity in colon carcinoma cells HCT-116 treated for 24 h with the compounds tested in the present work. The DNMT activity in the control, untreated cells was taken as 100%. Error bars are the SDs and the stars at the top of bars denote a significant difference from the control with (*p < 0.05; **p < […]), calculated using […] student’s t-test. The bars represent mean values from three independent experiments, each performed in quadruplicate.
Human colon carcinoma cells (HCT-116) were seeded at the density 1.5 × 10^6 cells/dish. […] The DNA content in each sample was determined by UV spectrophotometry. DNA (200 ng) from the samples was loaded to the Imprint methylated DNA quantification kit (Sigma-Aldrich, USA). The level of methylated DNA was proportional to the absorbance measured at 450 nm.

[2] = tested on: A2780 human ovarian carcinoma cells; test: MTT cytotoxicity, 72 h; type: cell-based; settings: Homo sapiens, A2780; MTT, 72 h, octanoic acid
PNT1a = test: MTT cytotoxicity, 72 h; type: cell-based; settings: Homo sapiens, PNT1A, octanoic acid
[3] = tested on: HSF human primary skin fibroblasts; test: MTT cytotoxicity, 72 h; type: cell-based; settings: Homo sapiens, Skin fibroblast, octanoic acid
Description: (§1) Cytotoxic activity of the compounds tested in the present work was screened on the panel of malignant and nonmalignant cell lines using the colorimetric MTT assay and 72 h of drug incubation period.
(§2) Cell death was evaluated using a system based on the tetrazolium compound MTT [3-(4,5-dimethyl-2-thiazolyl)-2,5-diphenyl-2H-tetrazolium bromide]. The cells were seeded in 96-well tissue culture plates at a density of 10^4 A2780cisR, LNCaP, HSF cells/well, 3 × 10^3 CHO-K1 or 4 × 10^3 MCF7, HCT-116 and MRC5 pd30 cells/well in 100 μL of medium. After overnight incubation (16 h), the cells were treated with the compounds in a final volume of 200 μL/well. After additional 72 h, 10 μL of a freshly diluted MTT solution (2.5 mg mL^−1) was added to each well, and the plate was incubated at 37 °C in a humidified 5% CO2 atmosphere for 4 h. At the end of the incubation period, the medium was removed, and the formazan product was dissolved in 100 μL of DMSO. The cell viability was evaluated by measurement of the absorbance at 570 nm, using an Absorbance Reader SUNRISE TECAN SCHOELLER. IC50 values were calculated from curves constructed by plotting cell survival (%) versus drug concentration (μM). All experiments were made in triplicate. The reading values were converted to the percentage of control (% cell survival). Cytotoxic effects were expressed as IC50.

[4] = tested on: MCF-7 human breast cancer cells; test: MTT cytotoxicity, 72 h; type: cell-based; settings: octanoic acid
Description: as §1, §2

[5] = tested on: MRC-5 (PD30) human fetal lung fibroblasts; test: MTT cytotoxicity, 72 h; type: cell-based; settings: Homo sapiens, MRC5, octanoic acid
Description: as §1, §2

[6] = tested on: LNCaP human prostate adenocarcinoma cells; test: MTT cytotoxicity, 72 h; type: cell-based; settings: Homo sapiens, LNCaP, octanoic acid
Description: as §1, §2

[7] = tested on: HCT-116 human colorectal carcinoma cells; test: MTT cytotoxicity, 72 h; type: cell-based; settings: Homo sapiens, HCT-116; MTT, 72 h, octanoic acid
Description: as §1, §2

[8] = tested on: CHO-K1 Chinese hamster ovary cells; test: MTT cytotoxicity, 72 h; type: cell-based; settings: Cricetulus griseus, CHO-K1, octanoic acid
Description: as §1, §2

[9] = tested on: A2780cisR human ovarian carcinoma cells; test: MTT cytotoxicity, 72 h; type: cell-based
Description: as §1, §2

[10] = tested on: HDAC enzymes in HCT-116 cells; test: HDAC fluorimetric cellular activity assay; type: cell-based, human; settings: 1 mM (1000-fold higher concentration)
Description: These epigenetic processes consist in downregulation of HDACs and yet other biochemical processes triggered by VPA released in cells by the reduction of the Pt(IV) prodrug. Moreover, it has also been shown[15] that non-branched MCFAs may act as HDAC inhibitors. […] HDAC activity was analyzed in HCT-116 cells and confirmed by an independent set of experiments on A2780 cells (data not shown) by using a commercial HDAC fluorimetric cellular activity kit as described in the section Materials and methods.
Figure 3 Activity of HDAC enzymes in HCT-116 cells treated with the compounds tested in the present work; their concentration was 1 µM except the concentration of free OA, which was 1 mM. […] The data represent a mean from three independent experiments, each performed in quadruplicate. The error bars are the SDs.
The activity of HDAC enzymes was analyzed in HCT-116 cells treated with compounds tested in the present work (1 µM). […] The activity of HDAC was analyzed using the HDAC fluorimetric cellular activity assay kit (Enzo Life Sciences; Farmingdale, NY) in the whole cells according to manufacturer’s instructions. […] The plates were scanned on a fluorescence reader Infinite 200 (TECAN) (360 nm excitation, 460 nm emission).

[11] = tested on: DNMT enzymes in HCT-116 cells; test: DNMT activity in nuclear extracts of treated cells; type: cell-based, human; design: unit of the concentration uncertain; settings: HCT-116, 1 (unit uncertain), 24 h
Description: In these experiments, the total activity of DNMT enzymes was determined in nuclear extracts prepared from HCT-116 cells which were treated with the platinum compounds, free OA or decitabine for 24 h (Fig. 4B).
Human colon carcinoma cells (HCT-116) were seeded in 100 mm culture dishes at the density 1.5 × 10^6 cells/dish. Cells were harvested after 24 h of incubation with the compounds tested in the present work (1 µM). Nuclear extracts from the pellets were separated using EpiQuik Nuclear extraction kit I (Epigentek, NY) according to manufacturer’s instructions. Quantification of nuclear proteins was analyzed with the standard Bradford assay. The activity of DNMT enzymes was analyzed using the EpiQuik DNMT activity/inhibition assay Ultra kit (Epigentek, NY), according to the manufacturer´s protocol. Briefly, 10 µg of total nuclear protein was analyzed for its DNMT activity. The reaction time with a universal DNMT substrate stably coated onto microplate wells was 120 min at 37 °C. The final signal at the end of the ELISA reaction was detected at 450 nm (reference 620 nm). DNMT activity was normalized to controls and expressed in the percent or absolute values as OD h^−1 mg^−1, calculated as described in the manufacturer’s manual.

## CCCCCCCC(=O)O [OA, octanoic acid, reference compound]
[1]
  Change of DNA methylation: capable of inducing DNA hypermethylation
[2]
  IC50: 1.46 ± 0.1 mM
PNT1a
  IC50: 2.07 ± 0.03 mM
[3]
  IC50: 9.74 ± 0.03 mM
[4]; Homo sapiens, MCF7, 72 h
  IC50: 16 mM
[4]
  IC50: 16.2 ± 0.56 mM
[5]
  IC50: 7.67 ± 0.61 mM
[6]
  IC50: 0.71 ± 0.12 mM
[7]
  IC50: 3.84 ± 0.39 mM
[8]
  IC50: 5.9 ± 0.7 mM
[9]; Homo sapiens, A2780cisR, MTT, 72 h, octanoic acid
  IC50: 0.76 ± 0.02 mM
[9]; IC50 (resistant, A2780cisR)/IC50 (sensitive, A2780)
  RF, resistance factor: 0.5
[10]
  Efficiency to inhibit HDAC activity: moderate inhibitory effect
[11]
  Activity of DNMT enzymes: enhanced activity of DNMT enzymes
